Laboratory results as given in patent US10961248B2, “Pesticidally active heterocyclic derivatives with sulfur containing substituents” (SYNGENTA PARTICIPATIONS AG, priority 2016, dated 2021).

What was measured:
[1] = test system: Plutella xylostella (Diamond Back Moth); experiment: Example B1: activity against Plutella xylostella, artificial diet in 24-well plates; type: in vivo; conditions: 120 h, application rate 200 ppm, L2 larvae on artificial diet, 5 days after infestation, read-out: effect in at least one of the two categories (mortality or growth inhibition)
Description: (§1) 24-well microtiter plates with artificial diet were treated with aqueous test solutions prepared from 10'000 ppm DMSO stock solutions by pipetting. After drying, the plates were infested with L2 larvae (10 to 15 per well). The samples were assessed for mortality and growth inhibition in comparison to untreated samples 5 days after infestation.

[2] = test system: Frankliniella occidentalis (Western Flower Thrips); experiment: Example B4: activity against Frankliniella occidentalis, sprayed sunflower leaf discs; type: in vivo; conditions: foliar, 168 h, application rate 200 ppm, population of mixed ages, 7 days after infestation
Description: (§2) Sunflower leaf discs were placed on agar in 24-well microtiter plates and sprayed with aqueous test solutions prepared from 10'000 DMSO stock solutions. After drying the leaf discs were infested with a Frankliniella population of mixed ages. The samples were assessed for mortality 7 days after infestation.

[3] = test system: Myzus persicae (Green Peach Aphid); experiment: Example B2: activity against Myzus persicae, sprayed sunflower leaf discs; type: in vivo; conditions: foliar, 144 h, application rate 200 ppm, aphid population of mixed ages, 6 days after infestation
Description: Sunflower leaf discs were placed on agar in a 24-well microtiter plate and sprayed with aqueous test solutions prepared from 10'000 ppm DMSO stock solutions. After drying, the leaf discs were infested with an aphid population of mixed ages. The samples were assessed for mortality 6 days after infestation.

[4] = test system: Bemisia tabaci (Cotton White Fly); experiment: Example B5: activity against Bemisia tabaci, sprayed cotton leaf discs; type: in vivo; conditions: foliar, 144 h, application rate 200 ppm, adult white flies, 6 days after incubation
Description: Cotton leaf discs were placed on agar in 24-well microtiter plates and sprayed with aqueous test solutions prepared from 10'000 ppm DMSO stock solutions. After drying the leaf discs were infested with adult white flies. The samples were checked for mortality 6 days after incubation.

[5] = test system: Spodoptera littoralis (Egyptian Cotton Leaf Worm); experiment: Example B7: activity against Spodoptera littoralis, sprayed cotton leaf discs; type: in vivo; conditions: foliar, 72 h, application rate 200 ppm, L1 larvae, 3 days after infestation
Description: Cotton leaf discs were placed onto agar in 24-well microtiter plates and sprayed with aqueous test solutions prepared from 10'000 ppm DMSO stock solutions. After drying the leaf discs were infested with five L1 larvae. The samples were assessed for mortality, anti-feeding effect, and growth inhibition in comparison to untreated samples 3 days after infestation. Control of Spodoptera littoralis by a test sample is given when at least one of the categories mortality, anti-feedant effect, and growth inhibition is higher than the untreated sample.

[6] = test system: Tetranychus urticae (Two-Spotted Spider Mite); experiment: Example B7: activity against Tetranychus urticae, sprayed bean leaf discs; type: in vivo; conditions: foliar, 192 h, application rate 200 ppm, mixed population (mobile stages), 8 days after infestation
Description: Bean leaf discs on agar in 24-well microtiter plates were sprayed with aqueous test solutions prepared from 10'000 ppm DMSO stock solutions. After drying the leaf discs were infested with a mite population of mixed ages. The samples were assessed for mortality on mixed population (mobile stages) 8 days after infestation.

[7] = test system: Euschistus heros (Neotropical Brown Stink Bug); experiment: Example B6: activity against Euschistus heros, sprayed soybean leaf; type: in vivo; conditions: 120 h, application rate 200 ppm, N-2 nymphs, 5 days after infestation, read-out: effect in at least one of the two categories (mortality or growth inhibition)
Description: Soybean leaf on agar in 24-well microtiter plates were sprayed with aqueous test solutions prepared from 10'000 ppm DMSO stock solutions. After drying the leaf were infested with N-2 nymphs. The samples were assessed for mortality and growth inhibition in comparison to untreated samples 5 days after infestation.

[8] = test system: Myzus persicae (Green Peach Aphid); experiment: Example B3: activity against Myzus persicae, roots of pea seedlings in test solution; type: in vivo; conditions: 144 h, test rate 24 ppm, roots of infested pea seedlings in test solution, 6 days
Description: Roots of pea seedlings infested with an aphid population of mixed ages were placed directly in the aqueous test solutions prepared from 10'000 DMSO stock solutions. The samples were assessed for mortality 6 days after placing seedlings in test solutions.

[9] = test system: Diabrotica Balteata (Corn Root Worm); experiment: Example B7: activity against Diabrotica balteata, sprayed maize sprouts; type: in vivo; conditions: 96 h, application rate 200 ppm, L2 larvae, 4 days after infestation, read-out: effect in at least one of the two categories (mortality or growth inhibition)
Description: as §1, with “Maize sprouts placed onto an agar layer in 24-well” for “24-well”, “plates” for “plates with artificial diet”, “spraying.” for “pipetting.”, “(6” for “(10”, “10” for “15”, “4” for “5”

[10] = test system: Thrips tabaci (Onion Thrips); experiment: Example B7: activity against Thrips tabaci, sprayed sunflower leaf discs; type: in vivo; conditions: foliar, 144 h, application rate 200 ppm, population of mixed ages, 6 days after infestation
Description: as §2, with “10'000 ppm” for “10'000”, “Thrips” for “Frankliniella”, “6” for “7”

[11] = test system: Spodoptera littoralis (Egyptian Cotton Leaf Worm); experiment: Example B7: activity against Spodoptera littoralis, compound in agar taken up by lettuce roots; type: in vivo; conditions: 144 h, test rate 12.5 ppm, systemic via lettuce roots, Spodoptera eggs, 6 days after infestation, read-out: effect in at least one of the three categories (mortality, anti-feeding, or growth inhibition)
Text: Test compounds were applied by pipette from 10'000 ppm DMSO stock solutions into 24-well plates and mixed with agar. Lettuce seeds were placed onto the agar and the multi well plate was closed by another plate which contained also agar. After 7 days the compound was absorbed by the roots and the lettuce grew into the lid plate. The lettuce leaves were then cut off into the lid plate. Spodoptera eggs were pipetted through a plastic stencil onto a humid gel blotting paper and the lid plate was closed with it. The samples were assessed for mortality, anti-feedant effect and growth inhibition in comparison to untreated samples 6 days after infestation.

For `CCS(=O)(=O)c1cc(N=S(C)(C)=O)cnc1-c1nc2cc(C(F)(F)F)ncc2n1C` [P2, [5-ethylsulfonyl-6-[3-methyl-6-(trifluoromethyl)imidazo[4,5-c]pyridin-2-yl]-3-pyridyl]imino-dimethyl-oxo-λ^6-sulfane], which percent effect (mortality or growth inhibition) at 200 ppm [1] is on record?
The percent effect (mortality or growth inhibition) at 200 ppm was at least 80%.

And the mortality at 200 ppm [2]?
Its mortality at 200 ppm is at least 80%.

What about the mortality at 200 ppm [3] of the same compound?
Its mortality at 200 ppm is at least 80%.

And the mortality at 200 ppm [4]?
The mortality at 200 ppm was at least 80%.

What about the percent control (mortality, anti-feedant effect or growth inhibition) at 200 ppm [5] of the same compound?
The percent control (mortality, anti-feedant effect or growth inhibition) at 200 ppm was at least 80%.

What about the mortality at 200 ppm [6] of the same compound?
Its mortality at 200 ppm is at least 80%.

And the percent effect (mortality or growth inhibition) at 200 ppm [7]?
The percent effect (mortality or growth inhibition) at 200 ppm was at least 80%.

What about the mortality at 24 ppm [8] of the same compound?
The mortality at 24 ppm was at least 80%.

What about the percent effect (mortality or growth inhibition) at 200 ppm [9] of the same compound?
Its percent effect (mortality or growth inhibition) at 200 ppm is at least 80%.

And the mortality at 200 ppm [10]?
The mortality at 200 ppm was at least 80%.

Which results are given for `CCS(=O)(=O)c1cc(N=S(C)(=O)C2CC2)cnc1-c1nc2cc(C(F)(F)F)ncc2n1C` (stereo not drawn) [P3, cyclopropyl-[[5-ethylsulfonyl-6-[3-methyl-6-(trifluoromethyl)imidazo[4,5-c]pyridin-2-yl]-3-pyridyl]imino]-methyl-oxo-λ^6-sulfane]?
percent effect (mortality or growth inhibition) at 200 ppm [1]: ≥ 80%; mortality at 200 ppm [2]: ≥ 80%; mortality at 200 ppm [3]: ≥ 80%; percent effect (mortality, anti-feeding or growth inhibition) at 12.5 ppm [11]: ≥ 80%; mortality at 200 ppm [4]: ≥ 80%; percent control (mortality, anti-feedant effect or growth inhibition) at 200 ppm [5]: ≥ 80%; mortality at 200 ppm [6]: ≥ 80%; percent effect (mortality or growth inhibition) at 200 ppm [7]: ≥ 80%; percent effect (mortality or growth inhibition) at 200 ppm [9]: ≥ 80%

For `CCS(=O)(=O)c1cc(N=S(=O)(CC)CC)cnc1-c1nc2cc(C(F)(F)F)ncc2n1C` [P4, diethyl-[[5-ethylsulfonyl-6-[3-methyl-6-(trifluoromethyl)imidazo[4,5-c]pyridin-2-yl]-3-pyridyl]imino]-oxo-λ^6-sulfane], which percent effect (mortality or growth inhibition) at 200 ppm [1] is on record?
Its percent effect (mortality or growth inhibition) at 200 ppm is at least 80%.

And the mortality at 200 ppm [3]?
The mortality at 200 ppm was at least 80%.

And the mortality at 200 ppm [4]?
Its mortality at 200 ppm is at least 80%.

What about the percent control (mortality, anti-feedant effect or growth inhibition) at 200 ppm [5] of the same compound?
The percent control (mortality, anti-feedant effect or growth inhibition) at 200 ppm was at least 80%.

What about the mortality at 200 ppm [6] of the same compound?
The mortality at 200 ppm was at least 80%.

And the percent effect (mortality or growth inhibition) at 200 ppm [7]?
The percent effect (mortality or growth inhibition) at 200 ppm was at least 80%.

What about the percent effect (mortality or growth inhibition) at 200 ppm [9] of the same compound?
Its percent effect (mortality or growth inhibition) at 200 ppm is at least 80%.

With `CCS(=O)(=O)c1cc(N=S(C)(=O)C2CC2)cnc1-c1nc2cc(C(F)(F)F)nnc2n1C` (stereo not drawn) [P7, cyclopropyl-[[5-ethylsulfonyl-6-[7-methyl-3-(trifluoromethyl)imidazo[4,5-c]pyridazin-6-yl]-3-pyridyl]imino]-methyl-oxo-λ^6-sulfane] as the compound, how does the percent effect (mortality or growth inhibition) at 200 ppm [1] read?
The percent effect (mortality or growth inhibition) at 200 ppm was at least 80%.

And the mortality at 200 ppm [2]?
The mortality at 200 ppm was at least 80%.

And the mortality at 200 ppm [3]?
The mortality at 200 ppm was at least 80%.

And the percent effect (mortality, anti-feeding or growth inhibition) at 12.5 ppm [11]?
The percent effect (mortality, anti-feeding or growth inhibition) at 12.5 ppm was at least 80%.

And the mortality at 200 ppm [4]?
Its mortality at 200 ppm is at least 80%.

And the percent control (mortality, anti-feedant effect or growth inhibition) at 200 ppm [5]?
The percent control (mortality, anti-feedant effect or growth inhibition) at 200 ppm was at least 80%.

What about the mortality at 200 ppm [6] of the same compound?
The mortality at 200 ppm was at least 80%.

And the percent effect (mortality or growth inhibition) at 200 ppm [7]?
The percent effect (mortality or growth inhibition) at 200 ppm was at least 80%.

What about the mortality at 24 ppm [8] of the same compound?
Its mortality at 24 ppm is at least 80%.

And the percent effect (mortality or growth inhibition) at 200 ppm [9]?
The percent effect (mortality or growth inhibition) at 200 ppm was at least 80%.

What does the source list for `CCS(=O)(=O)c1cc(N=S(C)(C)=O)cnc1-c1nc2cc(C(F)(F)F)nnc2n1C` [P9, [5-ethylsulfonyl-6-[7-methyl-3-(trifluoromethyl)imidazo[4,5-c]pyridazin-6-yl]-3-pyridyl]imidno-dimethyl-oxo-λ^6-sulfane]?
percent effect (mortality or growth inhibition) at 200 ppm [1]: ≥ 80%; mortality at 200 ppm [2]: ≥ 80%; mortality at 200 ppm [3]: ≥ 80%; mortality at 200 ppm [4]: ≥ 80%; percent control (mortality, anti-feedant effect or growth inhibition) at 200 ppm [5]: ≥ 80%; percent effect (mortality or growth inhibition) at 200 ppm [7]: ≥ 80%; mortality at 24 ppm [8]: ≥ 80%; percent effect (mortality or growth inhibition) at 200 ppm [9]: ≥ 80%; mortality at 200 ppm [10]: ≥ 80%

With `CCS(=O)(=O)c1cc(N=S(C)(=O)c2ccc(C)cc2)cnc1-c1cn2cnc(C(F)(F)F)cc2n1` (stereo not drawn) [P10, [5-ethylsulfonyl-6-[7-(trifluoromethyl)imidazo[1,2-c]pyrimidin-2-yl]-3-pyridyl]imino-methyl-oxo-(p-tolyl)-λ^6-sulfane] as the compound, how does the melting point read?
Its melting point is 155 to 157 °C.

For `CCS(=O)(=O)c1cc(N=S2(=O)CCC2)cnc1-c1nc2cc(C(F)(F)F)ncc2n1C` [P11, 1-[[5-ethylsulfonyl-6-[3-methyl-6-(trifluoromethyl)imidazo[4,5-c]pyridin-2-yl]-3-pyridyl]imino]thietane 1-oxide], which percent effect (mortality or growth inhibition) at 200 ppm [1] is on record?
Its percent effect (mortality or growth inhibition) at 200 ppm is at least 80%.

And the mortality at 200 ppm [2]?
The mortality at 200 ppm was at least 80%.

And the mortality at 200 ppm [3]?
Its mortality at 200 ppm is at least 80%.

And the mortality at 200 ppm [4]?
The mortality at 200 ppm was at least 80%.

And the percent control (mortality, anti-feedant effect or growth inhibition) at 200 ppm [5]?
Its percent control (mortality, anti-feedant effect or growth inhibition) at 200 ppm is at least 80%.

What about the mortality at 200 ppm [6] of the same compound?
Its mortality at 200 ppm is at least 80%.

What about the percent effect (mortality or growth inhibition) at 200 ppm [7] of the same compound?
Its percent effect (mortality or growth inhibition) at 200 ppm is at least 80%.

And the mortality at 24 ppm [8]?
The mortality at 24 ppm was at least 80%.

And the percent effect (mortality or growth inhibition) at 200 ppm [9]?
The percent effect (mortality or growth inhibition) at 200 ppm was at least 80%.

With `CCS(=O)(=O)c1cc(N=S2(=O)CCOCC2)cnc1-c1nc2cc(C(F)(F)F)nnc2n1C` [P23, 4-[[5-ethylsulfonyl-6-[7-methyl-3-(trifluoromethyl)imidao[4,5-c]pyridazin-6-yl]-3-pyridyl]imino]-1,4-oxathiane 4-oxide] as the compound, how does the percent effect (mortality or growth inhibition) at 200 ppm [1] read?
Its percent effect (mortality or growth inhibition) at 200 ppm is at least 80%.

And the mortality at 200 ppm [3]?
Its mortality at 200 ppm is at least 80%.

And the mortality at 200 ppm [4]?
The mortality at 200 ppm was at least 80%.

And the mortality at 200 ppm [6]?
Its mortality at 200 ppm is at least 80%.

And the percent effect (mortality or growth inhibition) at 200 ppm [7]?
The percent effect (mortality or growth inhibition) at 200 ppm was at least 80%.

And the mortality at 24 ppm [8]?
The mortality at 24 ppm was at least 80%.

Which melting point does the source give for `CCS(=O)(=O)c1cc(N=S2(=O)CCOCC2)ccc1-c1nc2cc(C(F)(F)F)nnc2n1C` [P25, 4-[3-ethylsulfonyl-4-[7-methyl-3-(trifluoromethyl)imidazo[4,5-c]pyridazin-6-yl]phenyl]imino-1,4-oxathiane 4-oxide] here?
Its melting point is 253 to 255 °C.

With `CCS(=O)(=O)c1cc(N=S2CCOCC2)cnc1-c1nc2cc(C(F)(F)F)ncc2n1C` [P26, 2-[3-ethylsulfonyl-5-(1,4-oxathian-4-ylideneamino)-2-pyridyl]-3-methyl-6-(trifluoromethyl)imidazo[4,5-c]pyridine] as the compound, how does the melting point read?
The melting point was 214 °C (dec.).
